From patent publication US20160304957A1, “TREATMENT AND MODULATION OF GENE EXPRESSION AND SKIN AGING” (DSM NUTRITIONAL PRODUCTS LTD., priority 2006, published 2016)

Tested on: HaCaT human keratinocytes
Assay: Affymetrix GeneChip microarray, transcriptional response to β-carotene and/or UVA
Assay type: cell-based
Settings: β-carotene 1.5 μM
Experimental: The cell culture experiments were carried out as described. Briefly, a subclone of passage 65 HaCaT keratinocytes, selected for differentiation capacity, was used at passages 16 to 23 after subcloning. 2×10^5 cells were seeded per 60 millimeter dish. Starting the following day, the cells were pretreated for 2 days with β-carotene at 1.5 μM, a typical concentration in human plasma after moderate dietary supplementation)
β-carotene-containing medium was prepared as follows. Fresh all-E-β-carotene (DSM Nutritional Products, Kaiseraugst, Switzerland) stock solution in THF (containing 0.025% BHT; Fluka Chemie A G, Switzerland) was diluted 1:2 with ethanol and added to cell culture medium to a final concentration of 1.5 μM β-carotene. The solvent concentration in the medium was 0.5% for all treatments. β-carotene-containing medium was prepared fresh for the daily medium changes.
On day 3 of the experiment, the cells were irradiated with a Hönle sun lamp Sol 500 (270 kJ/m^2; Dr. Hönle, Germany).
Five independent, factorially designed cell irradiation experiments were analyzed by microarray hybridization. For each experiment, one chip was hybridized per treatment condition. GeneChip® analysis was done as described in [132], which is incorporated by reference, as if recited in full herein. Gene regulation by β-carotene and/or UVA was calculated relative to placebo.
Changes in gene expression were included in further analysis only if the change factor was […], and if unpaired t-tests yielded p values≦0.05. Upregulations by a […] are labeled bold, downregulations by a change factor of […] are labeled bold italics. (Table 1) To identify the pathways affected by the treatments functional information on the genes was retrieved from public literature databases.

In the case of `CC1=C(/C=C/C(C)=C/C=C/C(C)=C/C=C/C=C(C)/C=C/C=C(C)/C=C/C2=C(C)CCCC2(C)C)C(C)(C)CCC1` [β-carotene, All-E-β-carotene], the “UVA induction of MMP-10, microarray” value (5 hours after UVA, UVA alone 4.6 fold) was 3.2 fold, the “5-aminolevulinate synthase (Y00451) change factor” value (unirradiated) was 0.08 and the “AAC11 (U83857) change factor” value (unirradiated) was −0.6. The “AP-2α (M36711) change factor” value (unirradiated) was −0.02, the “ATF4; activating transcription factor 4 (AL022312) change factor” value (unirradiated) was 0.11 and the “BAXγ (L22475) change factor” value (unirradiated) was 0.8. For the same compound, the “BAXδ (U19599) change factor” value (unirradiated) was 0.6, the “BMP2a; bone morphogenetic protein 2a (bmp-2a) (M22489) change factor” value (unirradiated) was −1.2 and the “BPAG1; bullous pemphigoid antigen (M69225) change factor” value (unirradiated) was −0.5. For the same compound, the “BUB1; mitotic checkpoint kinase (AF053305) change factor” value (unirradiated) was −0.5, the “C-FOS (V01512) change factor” value (unirradiated) was −0.14 and the “C-FOS (V01512, second entry) change factor” value (unirradiated) was −0.16. For the same compound, the “C-JUN (J04111) change factor” value (unirradiated) was −0.06, the “C/EBPβ; NF-IL6 (X52560) change factor” value (unirradiated) was −0.28 and the “C/EBPγ (U20240) change factor” value (unirradiated) was −0.09. The “C/EBPδ; NF-IL6-β (M83667) change factor” value (unirradiated) was 0.04, the “CDK activating kinase (X77743) change factor” value (unirradiated) was −0.01 and the “CDK-inhibitor p57KIP2 (KIP2) mrna (U22398) change factor” value (unirradiated) was −0.22. For the same compound, the “CENP-A; centromere protein-A (U14518) change factor” value (unirradiated) was −0.13, the “CENP-E; centromere protein-E (Z15005) change factor” value (unirradiated) was −0.37 and the “CENP-F; mitosin (U30872) change factor” value (unirradiated) was −0.42. For the same compound, the “CEP110; centriole associated protein (AF083322) change factor” value (unirradiated) was 0.15, the “CIP2; CDKN3 (L25876) change factor” value (unirradiated) was −0.18 and the “CLARP; CFLAR, alternatively spliced (AF005775) change factor” value (unirradiated) was −0.09. For the same compound, the “COUP-TF II; ARP1; apoA1 regulatory protein (M64497) change factor” value (unirradiated) was 0.33, the “COX-2, cyclooxygenase-2 (U04636) change factor” value (unirradiated) was −1.2 and the “CRADD; death domain containing protein (U84388) change factor” value (unirradiated) was −0.25. For the same compound, the “DKK-1; dickkopf-1 (AB020315) change factor” value (unirradiated) was −0.3, the “DNA ligase III (X84740) change factor” value (unirradiated) was −0.5 and the “DNA polymerase α-subunit (X06745) change factor” value (unirradiated) was −0.43. For the same compound, the “DNA primase (subunit p58) (X74331) change factor” value (unirradiated) was −0.16, the “DNA-PK, catalytic subunit (U47077) change factor” value (unirradiated) was −0.7 and the “DSC2; desmocollin type 2a and 2b (X56807) change factor” value (unirradiated) was −1.1. For the same compound, the “DUSP5 (U15932) change factor” value (unirradiated) was −0.15, the “DUSP7 (X93921) change factor” value (unirradiated) was −0.46 and the “EGFR; precursor of epidermal growth factor receptor (X00588) change factor” value (unirradiated) was −0.6. The “ENDOGL-2 (AB020735) change factor” value (unirradiated) was 0.8, the “ERBB3 precursor; similar to (H06628) change factor” value (unirradiated) was 0 and the “ERCC5; excision repair protein (L20046) change factor” value (unirradiated) was −0.48. The “ERF-2 (X78992) change factor” value (unirradiated) was 0.31, the “FGFR2; FGF receptor 2 (M87770) change factor” value (unirradiated) was 0.08 and the “FGFR3; FGF receptor (M64347) change factor” value (unirradiated) was −1.1. For the same compound, the “FRA-1 (X16707) change factor” value (unirradiated) was 0.14, the “FRA-2 (X16706) change factor” value (unirradiated) was −0.7 and the “GADD34 (U83981) change factor” value (unirradiated) was −0.11. For the same compound, the “GADD153 (S62138) change factor” value (unirradiated) was −0.45, the “GDF-1; growth/differentiation factor 1 (gdf-1) (M62302) change factor” value (unirradiated) was −0.8 and the “GEM (U10550) change factor” value (unirradiated) was −2.6. For the same compound, the “HB-EGF; heparin-binding egf-like growth factor (M60278) change factor” value (unirradiated) was 0.33, the “HER3; epidermal growth factor receptor (her3) (M34309) change factor” value (unirradiated) was −0.28 and the “HER3; epidermal growth factor receptor (her3) (M34309, second entry) change factor” value (unirradiated) was −0.6. The “HM74; PAR1-related (D10923) change factor” value (unirradiated) was 0.18, the “HOXA7 (AJj005814) change factor” value (unirradiated) was −0.43 and the “HOXC6 (S82986) change factor” value (unirradiated) was −0.07. For the same compound, the “HOXD4 (X59373) change factor” value (unirradiated) was −0.5, the “ID1 (X77956) change factor” value (unirradiated) was −0.01 and the “ID1 (X77956, second entry) change factor” value (unirradiated) was −0.11. For the same compound, the “ID3; HEIR1 (AL021154) change factor” value (unirradiated) was −0.43, the “ID-2H (D13891) change factor” value (unirradiated) was −0.7 and the “ID-4 (AL022726) change factor” value (unirradiated) was −0.08. The “IEX-1 (S81914) change factor” value (unirradiated) was −0.08, the “IFIT1; IFI56 (M24594) change factor” value (unirradiated) was 0 and the “IFIT1; IFI56 (M24594, second entry) change factor” value (unirradiated) was 0.05. For the same compound, the “IFIT2; ISG-54K (M14660) change factor” value (unirradiated) was 0.18, the “IFIT2; ISG-54K (M14660, second entry) change factor” value (unirradiated) was −0.21 and the “IFIT4; IFI60; cig5; RIGG (AF026941) change factor” value (unirradiated) was −0.23. For the same compound, the “IGF-BP 3; insulin-like growth factor-binding protein-3 gene (M35878) change factor” value (unirradiated) was 0.29, the “IGF-BP 3; insulin-like growth factor-binding protein-3 gene (M35878, second entry) change factor” value (unirradiated) was 0.22 and the “IL6; Interleukin 6; IFNβα2a (X04430) change factor” value (unirradiated) was 0.6. For the same compound, the “IL18; IGIF (IFNγ inducing factor) (D49950) change factor” value (unirradiated) was −0.8, the “ILK; integrin-linked kinase (U40282) change factor” value (unirradiated) was −0.23 and the “IRF-1; interferon regulatory factor 1 (L05072) change factor” value (unirradiated) was 0.16. The “IRF-7b; interferon regulatory factor 7b (U53831) change factor” value (unirradiated) was 0.16, the “IRF-9; p48; ISGF3γ (M97935) change factor” value (unirradiated) was −0.18 and the “JUNB (M29039) change factor” value (unirradiated) was −0.38. For the same compound, the “JUNB (X51345) change factor” value (unirradiated) was −0.5, the “JUND (X56681) change factor” value (unirradiated) was 0.6 and the “JUND (X56681, second entry) change factor” value (unirradiated) was 0.01. For the same compound, the “JUND (X56681, third entry) change factor” value (unirradiated) was 0, the “K-RAS (M54968) change factor” value (unirradiated) was −0.6 and the “KINESIN-LIKE 2; HSET (AL021366) change factor” value (unirradiated) was −0.34. The “KINESIN-LIKE 2; HSET (D14678) change factor” value (unirradiated) was −0.04, the “KINESIN-LIKE 2; HSET (D14678, second entry) change factor” value (unirradiated) was 0.03 and the “KINESIN-LIKE 5; KNSL5; MKLP-1; mitotic kinesin-like protein-1 (X67155) change factor” value (unirradiated) was −0.15. For the same compound, the “KINESIN-LIKE 6; KNSL6; MCAK; mitotic centromere-associated kinesin (U63743) change factor” value (unirradiated) was −0.15, the “KINESIN_LIKE 1; KNSL1; HKSP; EG5 (U37426) change factor” value (unirradiated) was −0.04 and the “KLF4; EZF (epithelial Zn finger) (U70663) change factor” value (unirradiated) was −0.17. For the same compound, the “KRS-2; stress responsive serine/threonine protein kinase (U60207) change factor” value (unirradiated) was −0.8, the “KU (p70/p80) (M30938) change factor” value (unirradiated) was −0.18 and the “LIM kinase 2 (limk-2) (D45906) change factor” value (unirradiated) was −0.3. For the same compound, the “Lekti (AJ228139) change factor” value (unirradiated) was 0.48, the “MAD3L; mitotic checkpoint kinase (AF053306) change factor” value (unirradiated) was −0.18 and the “MAF-F (AL021977) change factor” value (unirradiated) was −0.26. The “MAP kinase phosphatase (mkp-2) (U48807) change factor” value (unirradiated) was 0, the “MAPK9; JNK2 (U09759) change factor” value (unirradiated) was −0.36 and the “MAPK14; p38; csaids binding protein (csbp1) (L35263) change factor” value (unirradiated) was −0.38. For the same compound, the “MAPKK3b; MKK3b (D87116) change factor” value (unirradiated) was −0.06, the “MAPKK MEK5b (U71087) change factor” value (unirradiated) was −0.16 and the “MAPKKK5; ASK1 (U67156) change factor” value (unirradiated) was −0.06. The “MEIS2 (AF017418) change factor” value (unirradiated) was 0.26, the “MMP10 (X07820) change factor” value (unirradiated) was −1.3 and the “MMP-1 (M13509) change factor” value (unirradiated) was −1.61. The “MMP-3 (X05232) change factor” value (unirradiated) was −0.46.
